The values that follow come from ChEMBL document CHEMBL1156082, “Novel orally active morpholine N-arylsulfonamides gamma-secretase inhibitors with low CYP 3A4 liability” (Bioorg Med Chem Lett, 2009).

In data set [1] the test system is Mus musculus. Nature of the data set: Reduction of amyloid beta40 level in TgCRND8 mouse plasma at 30 mg/kg, sc after 3 hrs. Set-up: scale not given: the % may be the effect or the level left. It is filed as functional. The settings on record: route subcutaneous.
Data set [2] in a line: Inhibition of gamma-secretase assessed as reduction in membrane amyloid beta40 production.
The nature of data set [3]: Inhibition of gamma-secretase assessed as reduction in cell amyloid beta40 production.
Data set [4] is described as follows: AUC (0 to 6 hrs) in rat blood at 10 mg/kg, po. It is filed as ADME, organism-based. Details: time < 6 hr, dose 10 mg/kg, route oral.
The nature of data set [5]: Drug level in rat brain at 10 mg/kg, po. The format is ADME, organism-based. Details: dose 10 mg/kg, route oral.
The test system of data set [6] is Mus musculus. Nature of the data set: Reduction of amyloid beta40 level in TgCRND8 mouse brain drug dosed po once daily for 5 days. It is filed as functional. The settings on record: 120 h.
The nature of data set [7]: Inhibition of gamma-secretase-mediated notch processing by whole cell assay.
Data set [8] can be described thus: Ratio of IC50 for gamma-secretase-mediated notch processing to IC50 for gamma-secretase assessed as reduction in cell amyloid beta40 production.
For data set [9], the system named is Mus musculus. As to the kind of experiment: Reduction of amyloid beta40 level in TgCRND8 mouse plasma drug dosed po once daily for 5 days. It is filed as functional. To be noted: 120 h.

In the case of `C[C@@H]1CN(C(=O)OC2([C@H]3COC[C@@H](c4cc(F)cc(F)c4)N3S(=O)(=O)c3ccc(Cl)cc3)CC2)CCN1CCO`, in the data set on Mus musculus [1], the Activity was -87%. Also, in data set [2], the IC50 was found to be 0.0055 µM.

Turning to `C[C@@H]1CN(C(=O)OC2([C@H]3COC[C@@H](C4CC4)N3S(=O)(=O)c3ccc(Cl)cc3)CC2)CCN1CCO`, in data set [2], the IC50 was 0.037 µM.

Consider `CC(C)(CO)N1CCN(C(=O)OC2([C@H]3COC[C@@H](C4CC4)N3S(=O)(=O)c3ccc(Cl)cc3)CC2)CC1`, for which the concentration for half-maximal inhibition (IC50) in [3] was found to be 0.009 µM; in data set [2], 0.0095 µM. In [4], this compound came in with an AUC(0-t) at 6 h of 0.446 µg·h/mL. The Activity in the data set on Mus musculus [1] is on record as -78%.

In [5], `O=C(O)CC1CCN(C(=O)OC2([C@H]3COC[C@@H](C4CC4)N3S(=O)(=O)c3ccc(Cl)cc3)CC2)CC1` registered an AUC of 2.46 µg·h/mL. In data set [2], the IC50 turned out to be 0.024 µM.

As to `O=C(OC[C@H]1CCC[C@@H](c2cc(F)cc(F)c2)N1S(=O)(=O)c1ccc(Cl)cc1)N1CCN(CCO)CC1`, the IC50 in data set [3] is 0.167 µM; in [2], 0.041 µM.

With `C[C@@H]1OC[C@H](C2(OC(=O)N3CC4CCC(C3)N4CCO)CC2)N(S(=O)(=O)c2ccc(Cl)cc2)[C@@H]1C1CC1`, the IC50 in data set [2] stood at 0.0015 µM.

Regarding `O=C(OC1([C@H]2COC[C@@H](C3CC3)N2S(=O)(=O)c2ccc(Cl)cc2)CC1)N1CC[C@H](NS(=O)(=O)C(F)(F)F)C1`, the AUC(0-t) at 6 h in data set [4] worked out at 0.87 µg·h/mL. Besides, in data set [2], the 50% inhibitory concentration (IC50) amounted to 0.049 µM.

In turn, `CC(=O)N1C2CCC1CN(C(=O)OC1([C@H]3CO[C@H](C)[C@@H](C4CC4)N3S(=O)(=O)c3ccc(Cl)cc3)CC1)C2` showed an AUC(0-t) at 6 h in data set [4] of 0.023 µg·h/mL. Besides, the IC50 in data set [2] was determined as 0.004 µM.

`O=C(OC[C@H]1COC[C@@H](c2cc(F)cc(F)c2)N1S(=O)(=O)c1ccc(Cl)cc1)N1CCN(CCO)CC1`: the IC50 in data set [3] turned out to be 0.095 µM; in [2], 0.076 µM.

In the case of `C[C@H]1OC[C@H](C2(OC(=O)N3CC4CCC(C3)N4CCO)CC2)N(S(=O)(=O)c2ccc(Cl)cc2)[C@@H]1C1CC1`, in data set [2], the half-inhibitory concentration (IC50) came to 0.0009 µM.

`CC(C)(CO)N1CCN(C(=O)OC2([C@H]3COC[C@@H](c4cc(F)cc(F)c4)N3S(=O)(=O)c3ccc(Cl)cc3)CC2)CC1`: in the data set on Mus musculus [1], the Activity is listed as -68%. Further, the 50% inhibitory concentration (IC50) in data set [2] stood at 0.0014 µM.

For the compound `CN(C)CC(=O)N1C2CCC1CN(C(=O)OC1([C@H]3COC[C@@H](C4CC4)N3S(=O)(=O)c3ccc(Cl)cc3)CC1)C2`, the IC50 turned out to be 0.031 µM in data set [3] and 0.0089 µM in [2]. This compound registered an exposure AUC(0-t) at 6 h in data set [4] of 0.567 µg·h/mL.

On to `CC1(C)OC[C@H](C2(OC(=O)N3CC4CCC(C3)N4CCO)CC2)N(S(=O)(=O)c2ccc(Cl)cc2)[C@@H]1C1CC1`, for which the exposure AUC(0-t) at 6 h in [4] turned out to be 1.37 µg·h/mL. In addition, in data set [2], the IC50 was 0.0011 µM.

`O=C(OC1([C@H]2CCC[C@@H](c3cc(F)cc(F)c3)N2S(=O)(=O)c2ccc(Cl)cc2)CC1)N1CCN(CCO)CC1`: the IC50 in data set [3] is 0.005 µM.

For the compound `CC(C)(C(=O)O)C1CCN(C(=O)OC2([C@H]3COC[C@@H](C4CC4)N3S(=O)(=O)c3ccc(Cl)cc3)CC2)CC1`, in [5], the exposure (AUC) stood at 0.703 µg·h/mL. Further, the IC50 in data set [2] is 0.03 µM.

As to `O=C(OC1([C@H]2COC[C@@H](C3CC3)N2S(=O)(=O)c2ccc(Cl)cc2)CC1)N1CC2CCC(C1)N2CCO`, the IC50 in data set [3] turned out to be 0.015 µM; in data set [7] it was 0.194 µM; in data set [2], 0.0079 µM. In addition, the ED50 was 100 mg/kg in the data set with Mus musculus [6] and 10 mg/kg in the data set on Mus musculus [9]. For the same compound, the Ratio IC50 in [8] turned out to be 13. Besides, the AUC(0-t) at 6 h in data set [4] came out at 1.92 µg·h/mL. Further, the Activity in the data set with Mus musculus [1] was -93%.

Regarding `CC(=O)N1C2CCC1CN(C(=O)OC1([C@H]3COC(C)(C)[C@@H](C4CC4)N3S(=O)(=O)c3ccc(Cl)cc3)CC1)C2`, the AUC(0-t) at 6 h in [4] was 0.006 µg·h/mL. Further, the IC50 in data set [2] is 0.0046 µM.

As to `CCN1C2CCC1CN(C(=O)OC1([C@H]3COC[C@@H](C4CC4)N3S(=O)(=O)c3ccc(Cl)cc3)CC1)C2`, the IC50 was determined as 0.025 µM in [3] and 0.01 µM in data set [2]. In addition, the AUC(0-t) at 6 h in data set [4] came to 1.1 µg·h/mL.

In the case of `NC(=O)CC1CCN(C(=O)OC2([C@H]3COC[C@@H](C4CC4)N3S(=O)(=O)c3ccc(Cl)cc3)CC2)CC1`, the values for the IC50 in data set [3] and in [2] were 0.041 µM and 0.014 µM, respectively. This compound displayed an AUC(0-t) at 6 h in data set [4] of 0.035 µg·h/mL.

Regarding `O=C(OC1([C@H]2COC[C@@H](C3CC3)N2S(=O)(=O)c2ccc(Cl)cc2)CC1)N1C2CCC1CNC2`, the results for the concentration for half-maximal inhibition (IC50) in data set [3] and in data set [2] were 0.072 µM and 0.017 µM, respectively. This compound yielded an AUC(0-t) at 6 h in data set [4] of 4.66 µg·h/mL.

For `O=C(OC1([C@H]2COC[C@@H](C3CC3)N2S(=O)(=O)c2ccc(Cl)cc2)CC1)N1CC[C@H](OCCO)C1`, the IC50 in data set [3] is 0.031 µM; in [2], 0.02 µM. This compound yielded an AUC(0-t) at 6 h in [4] of 0.011 µg·h/mL.

As for `CS(=O)(=O)N1C2CCC1CN(C(=O)OC1([C@H]3COC[C@@H](C4CC4)N3S(=O)(=O)c3ccc(Cl)cc3)CC1)C2`, the IC50 in [2] was determined as 0.041 µM.

Take `O=C(OC1([C@H]2COC[C@@H](c3cc(F)cc(F)c3)N2S(=O)(=O)c2ccc(Cl)cc2)CC1)N1CC[C@H](O)C1`: the Activity in the data set on Mus musculus [1] was determined as 21%. In data set [2], the IC50 stood at 0.012 µM.

Take `CN1C2CCC1CN(C(=O)OC1([C@H]3COC[C@@H](C4CC4)N3S(=O)(=O)c3ccc(Cl)cc3)CC1)C2`: the figures for the IC50 in [3] and in data set [2] were 0.02 µM and 0.0046 µM, respectively. This compound came in with an AUC(0-t) at 6 h in data set [4] of 0.939 µg·h/mL. Moreover, the Activity in the data set on Mus musculus [1] is reported as -88%.

As to `O=C(OC1([C@H]2COC[C@@H](C3CC3)N2S(=O)(=O)c2ccc(Cl)cc2)CC1)N1C2CCC1CN(CCO)C2`, the values for the IC50 in data set [3] and in data set [2] were 0.027 µM and 0.015 µM, respectively. The compound also showed an AUC(0-t) at 6 h in data set [4] of 1.28 µg·h/mL.

`CC(=O)N1C2CCC1CN(C(=O)OC1([C@H]3COC[C@@H](C4CC4)N3S(=O)(=O)c3ccc(Cl)cc3)CC1)C2`: the results for the half-maximal inhibitory concentration (IC50) in data set [3] and in data set [2] were 0.025 µM and 0.015 µM, respectively. This compound also gave an AUC(0-t) at 6 h in [4] of 0.871 µg·h/mL.

For the compound `O=C(OC1([C@H]2COC[C@@H](C3CC3)N2S(=O)(=O)c2ccc(Cl)cc2)CC1)N1CC2CCC(C1)N2`, the IC50 was determined as 0.025 µM in data set [3] and 0.0071 µM in data set [2]. Further, the AUC(0-t) at 6 h in data set [4] worked out at 4.37 µg·h/mL. Besides, the Activity in the data set with Mus musculus [1] is on record as -90%.

In the case of `O=C(OC1([C@H]2COC[C@@H](C3CC3)N2S(=O)(=O)c2ccc(Cl)cc2)CC1)N1CC[C@H](O)C1`, in data set [2], the IC50 came to 0.027 µM.

`CC(=O)N1C2CCC1CN(C(=O)OC1([C@H]3CO[C@@H](C)[C@@H](C4CC4)N3S(=O)(=O)c3ccc(Cl)cc3)CC1)C2` returned an AUC(0-t) at 6 h in data set [4] of 0.178 µg·h/mL. The IC50 in data set [2] stood at 0.0054 µM.

As for `CN1CC2CCC(C1)N2C(=O)OC1([C@H]2COC[C@@H](C3CC3)N2S(=O)(=O)c2ccc(Cl)cc2)CC1`, the IC50 in data set [3] amounted to 0.017 µM; in data set [2] it was 0.0024 µM. The AUC(0-t) at 6 h in data set [4] was determined as 2.91 µg·h/mL.
